Data as given in patent publication US20240376084A1, “INHIBITORS OF ALPHA-HEMOLYSIN OF STAPHYLOCOCCUS AUREUS” (Helmholtz-Zentrum Fur Infektionsforschung GmbH, priority 2021, published 2024).

Each molecule was assayed against hemolysin alpha from Staphylococcus aureus (Staphylococcus aureus, UniProt P09616) (assay: cell-based).
hemolysin alpha from Staphylococcus aureus, sequence (P09616 27-319 limits assumed): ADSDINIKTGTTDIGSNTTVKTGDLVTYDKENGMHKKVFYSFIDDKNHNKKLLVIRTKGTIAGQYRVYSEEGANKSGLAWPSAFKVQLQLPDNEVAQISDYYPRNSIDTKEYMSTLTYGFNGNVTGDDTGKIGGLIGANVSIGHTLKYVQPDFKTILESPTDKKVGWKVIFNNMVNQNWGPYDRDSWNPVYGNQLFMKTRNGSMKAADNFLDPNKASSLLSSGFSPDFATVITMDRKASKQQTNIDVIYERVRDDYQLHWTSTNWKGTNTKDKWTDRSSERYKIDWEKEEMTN
`Cc1ccc(NS(=O)(=O)c2cc3[nH]c(=O)c(=O)[nH]c3cc2C)cc1C` [Compound 185, N-(3,4-dimethylphenyl)-7-methyl-2,3-dioxo-1,2,3,4-tetrahydroquinoxaline-6-sulfonamide] showed an IC50 of 1000 to 3500 nM. `Cc1cc2[nH]c(=O)c(=O)[nH]c2cc1S(=O)(=O)Nc1ccc2ncccc2c1` [Compound 186, 7-methyl-2,3-dioxo-N-(quinolin-6-yl)-1,2,3,4-tetrahydroquinoxaline-6-sulfonamide] gave an IC50 of 1000 to 3500 nM. `Cc1cc2[nH]c(=O)c(=O)[nH]c2cc1S(=O)(=O)Nc1cc(C)c(-c2cn[nH]c2)c(C)c1` [Compound 187, N-(3,5-dimethyl-4-(1H-pyrazol-4-yl)phenyl)-7-methyl-2,3-dioxo-1,2,3,4-tetrahydroquinoxaline-6-sulfonamide] gave an IC50 of 1000 to 3500 nM. For `Cc1cc2[nH]c(=O)c(=O)[nH]c2cc1S(=O)(=O)Nc1cc(C)c(-c2ccnn2C)c(C)c1` [Compound 188, N-(3,5-dimethyl-4-(1-methyl-1H-pyrazol-5-yl)phenyl)-7-methyl-2,3-dioxo-1,2,3,4-tetrahydroquinoxaline-6-sulfonamide], the IC50 was 1000 to 3500 nM. With `Cc1cc2[nH]c(=O)c(=O)[nH]c2cc1S(=O)(=O)Nc1ccc(-c2cncc(Cl)c2)c(Cl)c1` [Compound 189, N-(3-chloro-4-(5-chloropyridin-3-yl)phenyl)-7-methyl-2,3-dioxo-1,2,3,4-tetrahydroquinoxaline-6-sulfonamide] the IC50 was 30 to 100 nM. Molecule `O=c1[nH]c2cc(C(F)(F)F)c(S(=O)(=O)Nc3ccc(OC(F)(F)F)cc3)cc2[nH]c1=O` [Compound 190, 2,3-Dioxo-N-(4-(trifluoromethoxy)phenyl)-7-trifluoromethyl-1,2,3,4-tetrahydroquinoxaline-6-sulfonamide] has an EC50 of 100 to 1000 nM. `O=c1[nH]c2cc([N+](=O)[O-])c(S(=O)(=O)Nc3ccc(OC(F)(F)F)cc3)cc2[nH]c1=O` [Compound 191, 7-nitro-2,3-dioxo-N-(4-(trifluoromethoxy)phenyl)-1,2,3,4-tetrahydroquinoxaline-6-sulfonamide] showed an EC50 of 100 to 1000 nM. `O=c1[nH]c2cc(OC(F)(F)F)c(S(=O)(=O)Nc3ccc(OC(F)(F)F)cc3)cc2[nH]c1=O` [Compound 192, 2,3-dioxo-7-(trifluoromethoxy)-N-(4-(trifluoromethoxy)phenyl)-1,2,3,4-tetrahydroquinoxaline-6-sulfonamide] gave an EC50 of 100 to 1000 nM. Work on `COc1cc2[nH]c(=O)c(=O)[nH]c2cc1S(=O)(=O)Nc1ccc(OC(F)(F)F)cc1` [Compound 193, 7-methoxy-2,3-dioxo-N-(4-(trifluoromethoxy)phenyl)-1,2,3,4-tetrahydroquinoxaline-6-sulfonamide] yielded an EC50 of 100 to 1000 nM. With `CC(C)(C)c1ccc(NS(=O)(=O)c2cc3[nH]c(=O)c(=O)[nH]c3cc2Br)cc1` [Compound 195, 7-bromo-N-(4-(tert-butyl)phenyl)-2,3-dioxo-1,2,3,4-tetrahydroquinoxaline-6-sulfonamide] the EC50 was 1000 to 3500 nM. In the case of `Cc1cc2[nH]c(=O)c(=O)[nH]c2cc1S(=O)(=O)Nc1ccc(N2CCCC2)c(Cl)c1` [Compound 196, N-(3-chloro-4-(pyrrolidin-1-yl)phenyl)-7-methyl-2,3-dioxo-1,2,3,4-tetrahydroquinoxaline-6-sulfonamide], the EC50 is reported as 30 to 100 nM. Work on `Cc1cc2[nH]c(=O)c(=O)[nH]c2cc1S(=O)(=O)Nc1ccc(N2CCOCC2)c(Cl)c1` [Compound 200, N-(3-chloro-4-morpholinophenyl)-7-methyl-2,3-dioxo-1,2,3,4-tetrahydroquinoxaline-6-sulfonamide] yielded an EC50 of 1000 to 3500 nM. Molecule `Cc1cc2[nH]c(=O)c(=O)[nH]c2cc1S(=O)(=O)Nc1ccc(N2CCOCC2C)c(Cl)c1` (stereo not drawn) [Compound 201, N-(3-chloro-4-(3-methylmorpholino)phenyl)-7-methyl-2,3-dioxo-1,2,3,4-tetrahydroquinoxaline-6-sulfonamide] has an EC50 of 100 to 1000 nM. For `Cc1cc2[nH]c(=O)c(=O)[nH]c2cc1S(=O)(=O)Nc1ccc(N2CCOC(C)C2)c(Cl)c1` (stereo not drawn) [Compound 204, N-(3-chloro-4-(2-methylmorpholino)phenyl)-7-methyl-2,3-dioxo-1,2,3,4-tetrahydroquinoxaline-6-sulfonamide], the EC50 was 1000 to 3500 nM. Work on `Cc1cc2[nH]c(=O)c(=O)[nH]c2cc1S(=O)(=O)Nc1cnn(-c2ccccc2)c1` [Compound 207, 7-methyl-2,3-dioxo-N-(1-phenyl-1H-pyrazol-4-yl)-1,2,3,4-tetrahydroquinoxaline-6-sulfonamide] yielded an EC50 of 1000 to 3500 nM. With `Cc1cc2[nH]c(=O)c(=O)[nH]c2cc1S(=O)(=O)Nc1ccc(N2CCCOCC2)c(Cl)c1` [Compound 208, N-(3-chloro-4-(1,4-oxazepan-4-yl)phenyl)-7-methyl-2,3-dioxo-1,2,3,4-tetrahydroquinoxaline-6-sulfonamide] the EC50 was 1000 to 3500 nM. With `Cc1cc2[nH]c(=O)c(=O)[nH]c2cc1S(=O)(=O)Nc1cc(Cl)c(-c2ccc(F)cc2)cn1` [Compound 212, N-(4-chloro-5-(4-fluorophenyl)pyridin-2-yl)-7-methyl-2,3-dioxo-1,2,3,4-tetrahydroquinoxaline-6-sulfonamide] the EC50 was 30 to 100 nM. `Cc1cc2[nH]c(=O)c(=O)[nH]c2cc1S(=O)(=O)Nc1cnc(-c2cccc(Cl)c2)c(Cl)c1` [Compound 213, N-(5-chloro-6-(3-chlorophenyl)pyridin-3-yl)-7-methyl-2,3-dioxo-1,2,3,4-tetrahydroquinoxaline-6-sulfonamide] gave an EC50 of 100 to 1000 nM. Molecule `Cc1cc2[nH]c(=O)c(=O)[nH]c2cc1S(=O)(=O)Nc1cnc(-c2ccc(F)c(Cl)c2)c(Cl)c1` [Compound 214, N-(5-chloro-6-(3-chloro-4-fluorophenyl)pyridin-3-yl)-7-methyl-2,3-dioxo-1,2,3,4-tetrahydroquinoxaline-6-sulfonamide] has an EC50 of 100 to 1000 nM. In the case of `Cc1cc2[nH]c(=O)c(=O)[nH]c2cc1S(=O)(=O)Nc1cnc(-c2ccc(F)cc2)c(Cl)c1` [Compound 215, N-(5-chloro-6-(4-fluorophenyl)pyridin-3-yl)-7-methyl-2,3-dioxo-1,2,3,4-tetrahydroquinoxaline-6-sulfonamide], the EC50 is reported as 30 to 100 nM. `CN(C)c1cc2[nH]c(=O)c(=O)[nH]c2cc1S(=O)(=O)Nc1ccc(OC(F)(F)F)cc1` [Compound 221, 7-(dimethylamino)-2,3-dioxo-N-(4-(trifluoromethoxy)phenyl)-1,2,3,4-tetrahydroquinoxaline-6-sulfonamide] was tested, and the EC50 was 30 to 100 nM. With `Cc1cc2[nH]c(=O)c(=O)[nH]c2cc1S(=O)(=O)Nc1ccc(OC(F)(F)F)cn1` [Compound 222, 7-methyl-2,3-dioxo-N-(5-(trifluoromethoxy)pyridin-2-yl)-1,2,3,4-tetrahydroquinoxaline-6-sulfonamide] the EC50 was 100 to 1000 nM. Molecule `Cc1cc2[nH]c(=O)c(=O)[nH]c2cc1S(=O)(=O)Nc1ccc(OC(F)(F)F)nc1` [Compound 223, 7-methyl-2,3-dioxo-N-(6-(trifluoromethoxy)pyridin-3-yl)-1,2,3,4-tetrahydroquinoxaline-6-sulfonamide] has an EC50 of 100 to 1000 nM. `Cc1cc2[nH]c(=O)c(=O)[nH]c2cc1S(=O)(=O)Nc1ccc(-c2ccccc2)nc1` [Compound 224, 7-methyl-2,3-dioxo-N-(6-phenylpyridin-3-yl)-1,2,3,4-tetrahydroquinoxaline-6-sulfonamide] gave an EC50 of 100 to 1000 nM. `Cc1cc2[nH]c(=O)c(=O)[nH]c2cc1S(=O)(=O)Nc1cc(Cl)c(Br)cn1` [Compound 226, N-(5-bromo-4-chloropyridin-2-yl)-7-methyl-2,3-dioxo-1,2,3,4-tetrahydroquinoxaline-6-sulfonamide] gave an EC50 of 1000 to 3500 nM. For `Cc1cc2[nH]c(=O)c(=O)[nH]c2cc1S(=O)(=O)Nc1ccc2c(ccn2C)c1` [Compound 228, 7-methyl-N-(1-methyl-1H-indol-5-yl)-2,3-dioxo-1,2,3,4-tetrahydroquinoxaline-6-sulfonamide], the EC50 was 1000 to 3500 nM. Molecule `Cc1cc2[nH]c(=O)c(=O)[nH]c2cc1S(=O)(=O)Nc1ccc2cccnc2c1` [Compound 231, 7-methyl-2,3-dioxo-N-(quinolin-7-yl)-1,2,3,4-tetrahydroquinoxaline-6-sulfonamide] has an EC50 of 100 to 1000 nM. `Cc1nc2cc(NS(=O)(=O)c3cc4[nH]c(=O)c(=O)[nH]c4cc3C)ccc2s1` [Compound 234, 7-methyl-N-(2-methylbenzo[d]thiazol-5-yl)-2,3-dioxo-1,2,3,4-tetrahydroquinoxaline-6-sulfonamide] was tested, and the EC50 was 1000 to 3500 nM. Work on `Cc1cc2[nH]c(=O)c(=O)[nH]c2cc1S(=O)(=O)Nc1cnc(Br)c(Cl)c1` [Compound 236, N-(6-bromo-5-chloropyridin-3-yl)-7-methyl-2,3-dioxo-1,2,3,4-tetrahydroquinoxaline-6-sulfonamide] yielded an EC50 of 1000 to 3500 nM. For `O=c1[nH]c2cc3c(cc2[nH]c1=O)S(=O)(=O)N(c1ccc(OC(F)(F)F)cc1)CCO3` [Compound 237], the EC50 was 100 to 1000 nM. Work on `Cc1cc2[nH]c(=O)c(=O)[nH]c2cc1S(=O)(=O)Nc1nc2ccccc2s1` [Compound 238, N-(benzo[d]thiazol-2-yl)-7-methyl-2,3-dioxo-1,2,3,4-tetrahydroquinoxaline-6-sulfonamide] yielded an EC50 of 100 to 1000 nM. In the case of `Cc1nc2ccc(NS(=O)(=O)c3cc4[nH]c(=O)c(=O)[nH]c4cc3C)cc2s1` [Compound 239, 7-methyl-N-(2-methylbenzo[d]thiazol-6-yl)-2,3-dioxo-1,2,3,4-tetrahydroquinoxaline-6-sulfonamide], the EC50 is reported as 1000 to 3500 nM. `Cc1cc2[nH]c(=O)c(=O)[nH]c2cc1S(=O)(=O)Nc1nc(C)c(-c2ccccc2)s1` [Compound 240, 7-methyl-N-(4-methyl-5-phenylthiazol-2-yl)-2,3-dioxo-1,2,3,4-tetrahydroquinoxaline-6-sulfonamide] was tested, and the EC50 was 1000 to 3500 nM. `Cc1cc2[nH]c(=O)c(=O)[nH]c2cc1S(=O)(=O)Nc1ccc2c(c1)OC(F)(F)O2` [Compound 241, N-(2,2-difluorobenzo[d][1,3]dioxol-5-yl)-7-methyl-2,3-dioxo-1,2,3,4-tetrahydroquinoxaline-6-sulfonamide] was tested, and the EC50 was 100 to 1000 nM. In the case of `Cc1cc2[nH]c(=O)c(=O)[nH]c2cc1S(=O)(=O)Nc1ccc2c(c1)OCCO2` [Compound 242, N-(2,3-dihydrobenzo[b][1,4]dioxin-6-yl)-7-methyl-2,3-dioxo-1,2,3,4-tetrahydroquinoxaline-6-sulfonamide], the EC50 is reported as 100 to 1000 nM. For `COc1ccc(-c2ccc(NS(=O)(=O)c3cc4[nH]c(=O)c(=O)[nH]c4cc3C)cc2Cl)cc1C(N)=O` [Compound 395, 5-[2-chloro-4-[(7-methyl-2,3-dioxo-1,4-dihydroquinoxalin-6-yl)sulfonylamino]phenyl]-2-methoxy-benzamide], the EC50 was 1000 to 3500 nM.
